In data set [1] the target is T1, Solute carrier organic anion transporter family member 1A1 (Rattus norvegicus, UniProt P46720).
T1 sequence (P46720 whole entry): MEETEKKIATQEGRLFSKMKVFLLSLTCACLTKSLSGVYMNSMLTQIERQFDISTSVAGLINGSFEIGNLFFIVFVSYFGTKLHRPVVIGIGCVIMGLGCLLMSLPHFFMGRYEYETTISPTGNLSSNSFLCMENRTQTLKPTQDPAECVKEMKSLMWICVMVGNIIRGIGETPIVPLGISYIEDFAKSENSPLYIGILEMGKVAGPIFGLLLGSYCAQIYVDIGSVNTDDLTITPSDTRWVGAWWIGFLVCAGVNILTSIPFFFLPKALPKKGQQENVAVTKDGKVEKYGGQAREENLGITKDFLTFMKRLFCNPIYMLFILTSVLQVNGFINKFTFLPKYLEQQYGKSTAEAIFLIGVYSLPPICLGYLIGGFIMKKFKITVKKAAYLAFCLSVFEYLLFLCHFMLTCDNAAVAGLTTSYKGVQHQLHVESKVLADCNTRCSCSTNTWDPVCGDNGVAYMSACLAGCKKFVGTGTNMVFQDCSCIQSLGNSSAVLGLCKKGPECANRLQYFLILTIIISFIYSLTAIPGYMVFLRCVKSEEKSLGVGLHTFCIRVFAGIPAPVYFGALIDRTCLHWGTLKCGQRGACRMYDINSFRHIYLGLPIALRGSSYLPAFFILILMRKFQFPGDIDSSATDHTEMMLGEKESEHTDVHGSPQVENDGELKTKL
As to the kind of experiment: TP_TRANSPORTER: uptake in Oatp1-expressing COS-7 cells. The format is functional, cell-based. To be noted: monkey.

The target in data set [2] is T2, Hepatic sodium/bile acid cotransporter (Rattus norvegicus, UniProt P26435).
T2 sequence (P26435 whole entry): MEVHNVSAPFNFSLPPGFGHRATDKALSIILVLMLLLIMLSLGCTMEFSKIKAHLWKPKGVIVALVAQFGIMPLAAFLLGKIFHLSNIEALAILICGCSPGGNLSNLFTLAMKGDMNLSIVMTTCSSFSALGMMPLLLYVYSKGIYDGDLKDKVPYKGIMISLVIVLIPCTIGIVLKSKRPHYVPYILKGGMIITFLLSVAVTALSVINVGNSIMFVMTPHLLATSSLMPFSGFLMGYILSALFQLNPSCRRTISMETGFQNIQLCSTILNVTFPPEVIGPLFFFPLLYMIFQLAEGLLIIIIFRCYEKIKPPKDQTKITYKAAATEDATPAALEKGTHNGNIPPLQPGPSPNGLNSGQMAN
As to the kind of experiment: TP_TRANSPORTER: uptake in Ntcp-expressing COS-7 cells. The format is functional, cell-based. To be noted: monkey.

Peptide text beside a SMILES is read from it.

For the molecule `CC(C)C[C@@H]1NC(=O)[C@@H](C(C)C)NC(=O)[C@@H]2CCCN2C(=O)[C@@H](CC(=O)O)NC(=O)[C@@H](Cc2c[nH]c3ccccc23)NC1=O` [BQ-123] (HELM PEPTIDE1{L.[dW].[dD].P.[dV]}$PEPTIDE1,PEPTIDE1,1:R1-5:R2$$$V2.0), the Activity result in data set [1] and in data set [2] was “is not a substrate [-]” each time.

The values above are taken from ChEMBL document CHEMBL2073924, “Carrier-mediated hepatic uptake of peptidic endothelin antagonists in rats” (J Pharmacol Exp Ther, 1999).
